From US12545685B2 (Daiichi Sankyo Company, Limited, priority 2011, dated 2026) come the findings set out here.

Each structure is given as a SMILES string.

The target in this experiment is T1, Mdm2/p53 binding (GST-Mdm2 / His-p53) (Homo sapiens, UniProt Q00987, L33E).
T1 construct: Mdm2 partial protein having Mdm2 amino acids at positions 25 to 108
Kind of experiment: Mdm2/p53 binding assay (HTRF, His-p53 and GST-Mdm2). The conditions noted are these: His-p53 (aa 1-132) and GST-Mdm2 (aa 25-108, L33E) 6.25 nM each; 25°C, 1 hour; values given as ranges. The method, then: A protein dilution containing 6.25 nM each of His-p53 (fusion protein of a p53 partial protein having p53 amino acids at positions 1 to 132, with a histidine protein) and GST-Mdm2 (fusion protein of an Mdm2 partial protein having Mdm2 amino acids at positions 25 to 108 with leucine residue 33 substituted by glutamic acid, with glutathione transferase) proteins was prepared using a protein buffer solution (20 mM HEPES pH 7.4, 150 mM NaCl, 0.1% BSA). This protein dilution was added in an amount of 8 μl/well to a 384-well plate (384-well low volume NBC, Corning Inc., catalog No: 3676).
Next, a test compound was diluted with DMSO to produce a protein buffer solution containing 10% dilution, and this buffer solution was added in an amount of 4 μl/well to the plate.
Subsequently, a solution containing an XL665-labeled anti-His antibody (HTRF monoclonal anti-6HIS antibody labeled with XL665 (catalog No: 61HISXLB), Schering/Cisbio Bioassays) and a europium (Eu)-labeled anti-GST antibody (HTRF monoclonal anti-GST antibody labeled with europium cryptate, Schering/Cisbio Bioassays, catalog No: 61GSTKLB) at concentrations of 2.5 μg/ml and 0.325 μg/ml, respectively, was prepared using an antibody diluting buffer solution (20 mM HEPES pH 7.4, 150 mM NaCl, 0.1% BSA, 0.5 M KF). These dilutions were added in an amount of 8 μl/well (total reaction solution volume: 20 μl/well). Then the plate was incubated at 25° ° C. for 1 hour.
Time-resolved fluorescence at 620 and 665 nm was measured at an excitation wavelength of 320 nm using a plate reader (ARVOsx, PerkinElmer Co., Ltd. or PHERAstar, BMG LABTECH). Ratio (R) was calculated using the measured values (RFU 620 nm and RFU 665 nm) according to the following formula: […]
BI: measured value at 665 nm of reaction solution (only each buffer solution) nonsupplemented with each protein, the compound, and the antibodies
A and D: each measured value at 665 nm and 620 nm of reaction solution supplemented with only Eu-labeled anti-GST antibody solution
The R value calculated from the well supplemented with His-p53, GST-Mdm2, the test compound, and each antibody was defined as R (sample). The R value calculated from the well supplemented with His-p53, GST-Mdm2, and each antibody but without the test compound was defined as R (control). The R value calculated from the well supplemented with GST-Mdm2 the test compound, and each antibody but without His-p53 was defined as R (background). T/C was calculated from the formula shown below. An IC50 value for Mdm2/p53 binding was calculated by sigmoid fitting.

T1 sequence (Q00987 25-108 L33E): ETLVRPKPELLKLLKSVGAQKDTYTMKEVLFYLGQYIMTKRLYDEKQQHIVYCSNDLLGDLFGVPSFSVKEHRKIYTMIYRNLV

Compound `C[C@@H](O)[C@@H]1CC[C@@H](NC(=O)[C@@H]2NC3(CCC(C)(C)CC3)[C@@]3(C(=O)Nc4cc(Cl)ncc43)[C@H]2c2ccnc(Cl)c2F)CO1` [Example 192, 6″-Chloro-4′-(2-chloro-3-fluoropyridin-4-yl)-N-{(3R,6S)-6-[(1R)-1-hydroxyethyl]tetrahydro-2H-pyran-3-yl}-4,4-dimethyl-2″-oxo-1″,2″-dihydrodispiro[cyclohexane-1,2′-pyrrolidine-3′,3″-pyrrolo[3,2-c]pyridine]-5′-carboxamide] showed an IC50 of 1 to 50 nM. The compound `CCN(C)C(=O)[C@@H]1CC[C@@H](NC(=O)[C@@H]2NC3(CCC(C)(C)CC3)[C@@]3(C(=O)Nc4cc(Cl)ccc43)[C@H]2c2ccnc(Cl)c2F)CO1` [Example 125, (3′R, 4′S,5′R)-6″-chloro-4′-(2-chloro-3-fluoropyridin-4-yl)-N-{(3R,6S)-6-[ethyl(methyl)carbamoyl]tetrahydro-2H-pyran-3-yl}-4,4-dimethyl-2″-oxo-1″,2″-dihydrodispiro[cyclohexane-1,2′-pyrrolidine-3′,3″-indole]-5′-carboxamide] returned an IC50 of 1 to 50 nM. Take `CC1(C)CCC2(CC1)N[C@@H](C(=O)N[C@H]1CC[C@H](O)CC1)[C@H](c1cccc(Cl)c1F)[C@]21C(=O)Nc2cc(C#N)ccc21` [Example 15, (3′R, 4′S,5′R)-4′-(3-chloro-2-fluorophenyl)-6″-cyano-N-(trans-4-hydroxycyclohexyl)-4,4-dimethyl-2″-oxo-1″,2″-dihydrodispiro[cyclohexane-1,2′-pyrrolidine-3′,3″-indole]-5%-carboxamide]: the IC50 lay within 50 to 100 nM.

The compound `CC1(C)CCC2(CC1)N[C@@H](C(=O)N[C@@H]1CC[C@@H](c3ncon3)OC1)[C@H](c1ccnc(Cl)c1)[C@]21C(=O)Nc2cc(Cl)ccc21` [Example 63, (3′R,4′R,5′R)-6″-chloro-4′-(2-chloropyridin-4-yl)-4,4-dimethyl-N-[(3R,6S)-6-(1,2,4-oxadiazol-3-yl)tetrahydro-2H-pyran-3-yl]-2″-oxo-1″,2″-dihydrodispiro[cyclohexane-1,2′-pyrrolidine-3′,3″-indole]-5′-carboxamide] registered an IC50 of 50 to 100 nM. As to `CN(C)C(=O)[C@@H]1CC[C@@H](NC(=O)[C@@H]2NC3(CC(CF)(CF)C3)[C@@]3(C(=O)Nc4cc(Cl)ccc43)[C@H]2c2cccc(Cl)c2F)CO1` [Example 124, (3′R, 4′S,5′R)-6″-chloro-4′-(3-chloro-2-fluorophenyl)-N-[(3R,6S)-6-(dimethylcarbamoyl)tetrahydro-2H-pyran-3-yl]-3,3-bis(fluoromethyl)-2″-oxo-1″,2″-dihydrodispiro[cyclobutane-1,2′-pyrrolidine-3′,3″-indole]-5′-carboxamide], the IC50 was 1 to 50 nM. For the compound `O=C(N[C@@H]1CC[C@@H](CO)OC1)[C@@H]1NC2(CC(CF)(CF)C2)[C@@]2(C(=O)Nc3cc(Cl)ccc32)[C@H]1c1cc(Cl)cc(Cl)c1` [Example 169, (3′R, 4′R, 5′R)-6″-chloro-4′-(3,5-dichlorophenyl)-3,3-bis(fluoromethyl)-N-[(3R,6S)-6-(hydroxymethyl)tetrahydro-2H-pyran-3-yl]-2″-oxo-1″,2″-dihydrodispiro[cyclobutane-1,2′-pyrrolidine-3′,3″-indole]-5′-carboxamide], the IC50 is 50 to 100 nM.

The compound `O=C(N[C@@H]1CC[C@@H](CO)OC1)[C@@H]1NC2(CC(CF)(CF)C2)[C@@]2(C(=O)Nc3nc(Cl)ccc32)[C@H]1c1cccc(Cl)c1F` [Example 84, (3′R, 4′S,5′R)-6″-chloro-4′-(3-chloro-2-fluorophenyl)-3,3-bis(fluoromethyl)-N-[(3R,6S)-6-(hydroxymethyl)tetrahydro-2H-pyran-3-yl]-2″-oxo-1″,2″-dihydrodispiro[cyclobutane-1,2′-pyrrolidine-3′,3″-pyrrolo[2,3-b]pyridine]-5′-carboxamide] had an IC50 of 50 to 100 nM. On to `CC1(C)CCC2(CC1)N[C@@H](C(=O)N[C@@H]1CC[C@@H](c3ncon3)OC1)[C@H](c1ccnc(Cl)c1F)[C@]21C(=O)Nc2cc(Cl)ccc21` [Example 64, (3′R, 4′S,5′R)-6″-chloro-4′-(2-chloro-3-fluoropyridin-4-yl)-4,4-dimethyl-N-[(3R,6S)-6-(1,2,4-oxadiazol-3-yl)tetrahydro-2H-pyran-3-yl]-2″-oxo-1″,2″-dihydrodispiro[cyclohexane-1,2′-pyrrolidine-3′,3″-indole]-5′-carboxamide], for which the IC50 lay in the range of 50 to 100 nM. `CC1(C)CCC2(CC1)N[C@@H](C(=O)N[C@H]1CC[C@H](c3noc(=O)[nH]3)CC1)[C@H](c1ccnc(Cl)c1F)[C@]21C(=O)Nc2cc(Cl)ccc21` [Example 41, (3′R, 4′S,5′R)-6″-chloro-4′-(2-chloro-3-fluoropyridin-4-yl)-4,4-dimethyl-2″-oxo-N-[trans-4-(5-oxo-4,5-dihydro-1,2,4-oxadiazol-3-yl)cyclohexyl]-1″,2″-dihydrodispiro[cyclohexane-1,2′-pyrrolidine-3′,3″-indole]-5′-carboxamide] returned an IC50 of 1 to 50 nM.

`CC1(C)CCC2(CC1)N[C@@H](C(=O)N[C@@H]1CC[C@@H](c3n[nH]c(=O)o3)OC1)[C@H](c1cccc(Cl)c1F)[C@]21C(=O)Nc2nc(Cl)ccc21` [Example 55, (3′R, 4′S,5′R)-6″-chloro-4′-(3-chloro-2-fluorophenyl)-4,4-dimethyl-2″-oxo-N-[(3R,6S)-6-(5-oxo-4,5-dihydro-1,3,4-oxadiazol-2-yl)tetrahydro-2H-pyran-3-yl]-1″,2″-dihydrodispiro[cyclohexane-1,2′-pyrrolidine-3′,3″-pyrrolo[2,3-b]pyridine]-5′-carboxamide]: the IC50 fell in the range of 1 to 50 nM. Turning to `CC1(C)CCC2(CC1)N[C@@H](C(=O)N[C@@H]1CC[C@@H](C(O)CO)OC1)[C@H](c1ccnc(Cl)c1F)[C@]21C(=O)Nc2cc(Cl)ccc21` (single isomer, unassigned) [Example 89], the IC50 lay in the range of 1 to 50 nM. For the compound `CC1(C)CCC2(CC1)N[C@@H](C(=O)N[C@@H]1CC[C@@H](C(=O)NCCF)OC1)[C@H](c1ccnc(Cl)c1F)[C@]21C(=O)Nc2cc(Cl)ccc21` [Example 126, (3′R, 4′S,5′R)-6″-chloro-4′-(2-chloro-3-fluoropyridin-4-yl)-N-{(3R,6S)-6-[{2-fluoroethyl}carbamoyl]tetrahydro-2H-pyran-3-yl}-4,4-dimethyl-2″-oxo-1″,2″-dihydrodispiro[cyclohexane-1,2′-pyrrolidine-3′,3″-indole]-5′-carboxamide], the IC50 was in the range of 1 to 50 nM. The compound `CN(C)C(=O)[C@@H]1CC[C@@H](NC(=O)[C@@H]2NC3(CC(CF)(CF)C3)[C@@]3(C(=O)Nc4cc(Cl)ccc43)[C@H]2c2ccnc(Cl)c2F)CO1` [Example 167, (3′R, 4′S,5′R)-6″-chloro-4′-(2-chloro-3-fluoropyridin-4-yl)-N-[(3R,6S)-6-(dimethylcarbamoyl)tetrahydro-2H-pyran-3-yl]-3,3-bis(fluoromethyl)-2″-oxo-1′″, 2′″-dihydrodispiro[cyclobutane-1,2′-pyrrolidine-3′,3″-indole]-5″-carboxamide] came in with an IC50 of 1 to 50 nM. `CC1(C)CCC2(CC1)N[C@@H](C(=O)N[C@@H]1CC[C@@H](C(=O)NCCO)OC1)[C@H](c1ccnc(Cl)c1F)[C@]21C(=O)Nc2cc(Cl)ccc21` [Example 103, (3′R, 4′S,5′R)-6″-chloro-4′-(2-chloro-3-fluoropyridin-4-yl)-N-{(3R,6S)-6-[(2-hydroxyethyl)carbamoyl]tetrahydro-2H-pyran-3-yl}-4,4-dimethyl-2″-oxo-1″,2″-dihydrodispiro[cyclohexane-1,2′-pyrrolidine-3′,3″-indole]-5′-carboxamide]: the IC50 fell in the range of 1 to 50 nM. To `CN(C)C(=O)[C@H]1C[C@H](NC(=O)[C@@H]2NC3(CC(CF)(CF)C3)[C@@]3(C(=O)Nc4cc(Cl)ccc43)[C@H]2c2cccc(Cl)c2F)C1` [Example 145, (3′R, 4′S,5′R)-6″-chloro-4′-(3-chloro-2-fluorophenyl)-N-[trans-3-(dimethylcarbamoyl)cyclobutyl]-3,3-bis(fluoromethyl)-2″-oxo-1″,2″-dihydrodispiro[cyclobutane-1,2′-pyrrolidine-3′,3″-indole]-5′-carboxamide] belongs 50 to 100 nM.
